According to paper PMC7363588, “Mapping of the FGF14:Nav1.6 complex interface reveals FLPK as a functionally active peptide modulating excitability” (Physiological Reports, 2020):
Entries after “also recorded” stand apart in the source; their conditions may differ. Peptide text beside a SMILES is read from it.

How the values were obtained:
[1] = test system: FGF14^Y158A:Nav1.6 complex; assay: LCA, CLuc-FGF14^Y158A; format: cell-based, human; conditions: 50 µM peptide, 12 hr, HEK293, vs DMSO
[2] = test system: FGF14^Y158A/V160A:Nav1.6 complex; assay: LCA, CLuc-FGF14^Y158A/V160A; format: cell-based, human; conditions: 50 µM peptide, 12 hr, HEK293, vs DMSO
FGF14 = molecular target: T1, FGF14 (Homo sapiens, UniProt Q92915); assay: SPR binding to FGF14; conditions: for binding to FGF14: SPR
T1 construct: aa 64–252); 6X His (N); made in house; host or cells: E. coli BL21 (DE3) pLys
T1 sequence (Q92915 64-252 isoform Q92915-2): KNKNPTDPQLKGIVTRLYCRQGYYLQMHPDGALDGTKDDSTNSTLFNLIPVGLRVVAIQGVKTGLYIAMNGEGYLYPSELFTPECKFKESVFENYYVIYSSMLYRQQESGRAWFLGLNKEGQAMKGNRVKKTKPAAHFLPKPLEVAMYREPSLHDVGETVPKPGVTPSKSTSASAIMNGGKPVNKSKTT
From the text: Plasmids used in this study derived from the following clones: human FGF14‐1b isoform (accession number: NM_175929.2) and human Nav1.6 (accession number: NM_014191.3). The CLuc‐FGF14, CD4‐Nav1.6‐NLuc, constructs and the pcDNA3.1 vector (Invitrogen, Carlsbad, CA) were engineered and characterized as previously described (Goetz et al., 2009; Shavkunov et al., 2012,2013,2015; Ali et al., 2016, 2018; Wadsworth et al., 2019). The plasmid pGL3 expressing full length Firefly (Photinus pyralis) luciferase was a gift from Dr. P. Sarkar (Department of Neurology, UTMB). For protein purification studies, cDNAs encoding FGF14‐1b (accession number NP_787125; aa 64–252) or the C‐terminal tail of Nav1.6 (accession number #NP_001171455; aa 1756–1939) were subcloned into suitable pET bacterial expression vectors (pET28a‐FGF14; pET30a‐Nav1.6) with a 6X His‐tag at the N‐terminal site; these plasmids were a gift of Dr. Moosa Mohammadi (NYU, Langone Medical Center). The mutation coding for FGF14^V160A was generated by site‐directed mutagenesis and PCR using FGF14‐1b as a template described previously (Ali et al., 2016). For electrophysiological studies FGF14‐GFP (human) and FGF14‐ΔNT‐GFP (human) were cloned into the GFP plasmid (pQBI‐fC2; Quantum Biotechnology Inc., Montreal, Canada) as previously described.
Upon transformation with corresponding cDNA clones, the recombinant proteins FGF14, FGF14^V160A and Nav1.6 C‐terminal tail were expressed in E. coli BL21 (DE3) pLys (Invitrogen) after induction with 0.1 mM isopropyl thio‐β‐D‐galacto‐pyranoside (IPTG) for 24 hr at 16°C. After induction with IPTG, bacterial cells were harvested and lysed by sonication at 4°C in lysis/binding buffer containing following components (mM): sodium phosphate 10 (prepared from 0.5 M of Na2HPO4 and NaH2PO4) + 3‐cholamidopropyl dimethylammonio 1‐propanesulfonate 0.1% pH 7.0 (for FGF14 proteins) + HEPES 25 + NaCl 150 + glycerol 10% (Nav1.6) pH 7.5 and containing 0.1 mM phenyl methyl sulphonyl fluoride (PMSF). The respective proteins were centrifuged at 18,000 g for 30 min at 4°C. For purification of FGF14 and FGF14^V160A, the supernatant was applied to preequilibrated heparin and the proteins were then eluted with NaCl 0.2–2.0 M in the elution (sodium phosphate 10 mM + NaCl 0.2–2.0 M pH 7.0) buffer. For purification of the Nav1.6 C‐tail, the supernatant was applied first to Ni^2+ NTA column and eluted with imidazole (200 mM). The Nav1.6 C‐tail was further purified using HiTrap QFF‐sepharose column (GE Healthcare Bio‐Sciences, Pittsburgh, PA) with a buffer containing Tris‐HCl 50 mM and eluted with NaCl (10–500 mM) at pH 7.5. Finally, all concentrated proteins were purified on an AKTA FPLC purifier using Superdex 200 Hiload 16 × 60 columns (GE Healthcare Bio‐Sciences) and equilibrated in Tris‐HCl 50 mM + NaCl 150 mM, pH 7.5 (Ali et al., 2016; Scala et al., 2018).
SPR experiments were performed on a Biacore T100 (GE Healthcare Bio‐Sciences, Pittsburgh, PA), and the interaction of FGF14 and Nav1.6 channel toward FLPK, PLEV and EYYV (1–100 µM) were studied at 25°C. To analyze the effects of FLPK, PLEV and EYYV on FGF14^WT (RU 16,000), FGF14^V160A (RU 18,000) and Nav1.6 C‐tail (RU 12,000), the proteins were immobilized on CM5 sensor chip using Acetate 5.5 with Amine Coupling Kit (Biacore GE Healthcare Bio‐Sciences). No protein was coupled to the control flow channel of the chip. Using a flow rate of 50 µl/min, FLPK, PLEV and EYYV (1–100 µM) diluted in HBS‐P^+ buffer were injected over the chip for 180 s, followed by injection of HBS‐P+ for 180 s to monitor dissociation, and finally the chip surface was regenerated with NaCl (200 mM). For each peptide injection, nonspecific responses (buffer only) were subtracted from experimental sensograms/traces prior to data analysis. Maximal equilibrium responses were plotted against peptide concentrations and association rate constant (kon), dissociation rate constatnt (koff) were determined. […]

[3] = Biacore T100, CM5, 25°C, peptide 1–100 µM in HBS-P+ pH 7.4, FGF14 RU 16,000, N.M. = not measurable

CC(=O)N[C@@H](Cc1ccccc1)C(=O)N[C@@H](CC(C)C)C(=O)N1CCC[C@H]1C(=O)N[C@@H](CCCCN)C(N)=O [FLPK] (Ac-FLPK-NH2) was tested, and the “effect on FGF14^Y158A:Nav1.6 complex formation” value [1] was “abolished the effect of FLPK”, the “effect on FGF14^Y158A/V160A:Nav1.6 complex formation” value [2] was “prevented the effect of FLPK and EYYV; also recorded: abolished” and the koff (FGF14; Biacore T100, CM5, 25°C, peptide 1–100 µM in HBS-P+ pH 7.4, FGF14 RU 16,000, N.M. = not measurable, read-out: koff, dissociation rate constant) was 0.000431 s⁻¹. For the same compound, the Kd (FGF14; Biacore T100, CM5, 25°C, peptide 1–100 µM, read-out: KD, equilibrium constant) was 4.97 µM and the “binding to FGF14” value (FGF14; peptide 1–100 µM) was “only FLPK exhibited measurable affinity”.

With “EYYV [tetrapeptide previously designed from FGF14:FGF14 dimer interface; docked with N-terminal acetylation and C-terminal amidation]” the “effect on FGF14^Y158A:Nav1.6 complex formation” value [1] was “increased the inhibition”, the “effect on FGF14^Y158A/V160A:Nav1.6 complex formation” value [2] was “prevented the effect of FLPK and EYYV; also recorded: abolished” and the “koff, dissociation rate constant” value (FGF14; [3]) was “N.M”. The “kon, association rate constant” value (FGF14; [3]) was “N.M” and the “binding to FGF14” value (FGF14; peptide 1–100 µM) was “no appreciable affinity to either protein was detected”.

With “PLEV [tetrapeptide previously designed from FGF14:FGF14 dimer interface; docked with N-terminal acetylation and C-terminal amidation]” the “effect on FGF14^Y158A:Nav1.6 complex formation” value [1] was “increased the inhibition”, the “effect on FGF14^Y158A/V160A:Nav1.6 complex formation” value [2] was “slight, but statistically significant increase; also recorded: not PLEV” and the “koff, dissociation rate constant” value (FGF14; [3]) was “N.M”. For the same compound, the “kon, association rate constant” value (FGF14; [3]) was “N.M” and the “binding to FGF14” value (FGF14; peptide 1–100 µM) was “no appreciable affinity to either protein was detected”.
